Test results taken from patent US4098823A, “Monospiroalkyl derivatives of prostaglandins” (Miles Laboratories, Inc., priority 1977, dated 1978).

Assays:
[1] = system: Gastric Secretion; assay: Effects on Gastric Secretion in the Rat; format: in vivo; settings: pylorus-ligated rat, subcutaneous, 2 x 1.5 mg/kg (total 3.0 mg/kg), 4 hours
Protocol: A procedure based on that described by Lipmann (J. Pharm. Pharmacol., 21:335 [1968]) was used to assess the influence of test compounds on gastric secretion. Rats of one sex weighing 150 to 200 g were randomly divided into groups of six animals each and fasted for 48 hours previously to the experiments, water being available adlibitum. The animals were anesthetized with ether, the abdomen was opened through a midline incision and the pylorus was ligated. Test compounds were diluted from stock solution so as to administer a dose of 1.5 mg/kg in a volume equivalent to 1 ml/kg. Subcutaneous injections were applied immediately after surgery and again 2 hours later, so that a total dose of 3.0 mg/kg was administered. Dilutions were made with phosphate buffer (pH 7.38) as recommended by Lee et al. (Prostaglandins 3:29 [1973]), in order to insure adequate stability of drugs at the subcutaneous depot. Each compound was tested in one group of rats; an additional control group received only the vehicle.
Four hours after pyloric ligation the animals were killed with ether, the cardias ligated and the stomachs removed. The volume of gastric secretion was measured and the contents centrifuged at 500 rpm for 10 minutes. Total acid in the supernatant was titrated against a 0.1 N sodium hydroxide solution and the amount expressed in mEq.
Volume and total acid values of the treated group were compared with those of the controls by the "T" test. Antisecretory activity was scored according to the following scale: […]

[2] = system: Femoral Blood Flow; assay: Effects on Femoral Blood Flow in the Dog; format: in vivo; settings: anesthetized mongrel dog, intraarterial, 0.001 to 10 mcg
Protocol: The peripheral vasodilator or constrictor effects of these compounds were determined in mongrel dogs of either sex, weighing between 10 and 20 kg anesthestized intravenously with 35 mg/kg of sodium pentobarbital. An external iliac artery was dissected immediately above the femoral arch for a length of approximately 5 cm and a previously calibrated, non-connulating electromagnetic flowmeter sensor with a lumen between 2.5 and 3.5 mm was placed snugly around the vessel. Cannulas were placed in a branch of the artery arising distally to the location of the flowmeter sensor for intraarterial drug administrations, in the contralateral femoral artery for systemic blood pressure recordings and in the trachea for artificial respiration with room air. Femoral blood flow and systemic blood pressure were continously recorded with an electromagnetic flowmeter and pressure tranducer, respectively.
After an adequate control period, test compounds were injected intraarterially at one log-spaced doses ranging from 0.001 to 10 mcg., in a volume of 0.5 ml and at 5 to 10 minute intervals. Maximum changes in bloodflow, as well as any variations in blood pressure, were tabulated for each dose in absolute values (ml/min. and mmHg). The calculations were made taking as control values those existing immediately before administration of each dose. The direction of the observed change (plus for increase and minus for decrease) was also noted. The dose changing bloodflow by 100 ml/min (ED100 ml/min) was calculated graphically and was used for scoring activity as follows: […]

[3] = system: Blood Pressure and Heart Rate; assay: Effects on Blood Pressure and Heart Rate in the Anesthetized Cat; format: in vivo; settings: Felis catus, intravenous, 0.01 to 10.0 mcg/kg, scored only on hypotension, read-out: Test D Activity Value (ED50 mmHg, decrease in blood pressure);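 also: Anesthetized cats given intravenous doses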
Protocol: The acute effects of test compounds on blood pressure and heart rate were determined in cats of either sex anesthetized with a mixture of pentobarbital sodium (35 mg/kg, i.v.) and barbital sodium (100 mg/kg, i.v.). Cannulas were placed in the trachea to allow adequate spontaneous ventilation, in a femoral artery for blood pressure recording with a strain gage transducer, and in a saphenous vein for drug administration. Heart rate was recorded by means of a cardiotachometer driven by the R wave of the electrocardiogram. After a period of 10 minutes of stable recordings of blood pressure and heart rate, the test compound was administered intravenously at doses increasing from 0.01 to 10.0 mcg/kg, spaced one log and injected at 10 minutes intervals. All doses were injected in a volume of 0.1 ml/kg. Modifications of blood pressure and heart rate induced by the test compound were expressed both in absolute units (mmHg and beats/minutes) and as percent of values recorded immediately before administration of each dose. Biphasic responses were tabulated in the order in which they occur. The direction of the observed changes was also noted (+ for increases and - for decreases).
Activity of compounds in this test was judged only on the basis of the degree of hypotension observed. Thus, the ED50 mmHg (dose decreasing blood pressure by 50 mmHg) was calculated graphically and the compound scored according to the following scale: […]

[4] = system: rat stomach fundus; assay: Cascade Assay, stomach (smooth muscle stimulant effect); format: cell-based; settings: superfused, 50% of maximum (PGE1)
Protocol: (§1) The smooth muscle stimulant effects of test compounds were determined simultaneously in four different tissues that are known to be reactive to naturally occurring prostaglandins. Segments of rat stomach fundus, rat colon, chick rectum and rabbit aortic strip were obtained as described by: Vane, J. R., Brit. J. Pharmacol., 12: 344 (1957); Regoli, D. and Vane, J. R., Brit. J. Pharmacol., 23: 351 (1964); Mann, M. and West, G. B., Brit. J. Pharmacol., 5: 173 (1950); and Furchgott, R. F. and Bhadrakom, R., J. Pharmacol. Exper. Ther., 108: 129 (1953). One end of each preparation was tied to the bottom of a 10 ml tissue chamber and the other to a force displacement transducer (Grass FT-03) for continuous tension recording. The stomach, colon, and rectum segments were stretched to an initial tension of 1 g, while the aortic strip was subjected to 4 g. All preparations were left undisturbed for 1 hour prior to testing. The chambers were equipped with an external jacket through which water, maintained at 40° C, was circulated. Preparations were arranged one beneath the other in descending order (aorta, stomach, colon and rectum). Provision was made for bathing the four tissues successively so that they were superfused with the same fluid (Gaddum, H. J., Brit. J. Pharmacol., 6: 321 [1953]. The bathing fluid consisted of: Krebs bicarbonate solution aerated with a mixture of 95% O2 and 5% CO2 and warmed at 37° C; atropine sulphate (0.1 mcg/ml), phenoxybenzamine hydrochloride (0.1 mcg/ml), propranolol hydrochloride (3.0 mcg/ml), methysergide maleate (0.2 mcg/ml) and brompheniramine maleate (0.1 mcg/ml) were added to eliminate the possibility of smooth muscle responses being due to stimulation of cholinergic, adrenergic, serotonin or histamine receptors. The fluid was circulated by means of a roller pump and was allowed to drip over the preparations at a rate of 10 ml/minute.
(§2) Test compounds were diluted from stock solutions so as to administer quantities ranging from 0.001 100,000 ng in a volume of 0.5 ml. The compounds were applied by dripping on the uppermost tissue, at intervals of 10 to 20 minutes. Maximal increases in tension after each dose were measured and the results were used to plot dose-response curves. ED50 data (doses necessary to produce a response 50% of maximum) were then calculated graphically for each tissue.
(§3) Activity in each tissue was scored according to the following scale: […]

[5] = system: rat colon; assay: Cascade Assay, colon (smooth muscle stimulant effect); format: cell-based; settings: superfused, 50% of maximum (PGF2α)
Protocol: as §1, §2, §3

[6] = system: chick rectum; assay: Cascade Assay, rectum (smooth muscle stimulant effect); format: cell-based; settings: superfused, 50% of maximum (PGE1)
Protocol: as §1, §2, §3

[7] = system: rabbit aortic strip; assay: Cascade Assay, aorta (smooth muscle stimulant effect); format: cell-based; settings: superfused, 50% of maximum (PGA2)
Protocol: as §1, §2, §3

[8] = system: Rat Uterus; assay: Effects on the Rat Uterus in Vitro; format: cell-based; settings: Rattus norvegicus; in vitro, 29° C; response 50% that of carbachol; read-out: Test F Rat Uterus, Activity Value (ED50)
Protocol: The uterine stimulant effect of test compounds was determined in segments of uterus obtained from rats (140-160 g) pretreated subcutaneously with 1 mg/kg of diethyl-stilbesterol 18 hours before the experiment. The tissues were placed in 10 ml chambers filled with de-Jalon solution at 29° C, were aerated and bubbled with 95% O2 and 5% CO2, and were prepared for isometric recording with force displacement transducers. Preparations were stretched to an initial tension of 1 g and were left undisturbed for 30 minutes. Carbachol (1 mcg/ml) was then added to the bath and a response was recorded. After a 10 minute interval the carbachol procedure was repeated. Responses to increasing concentrations of a test compound (0.001 to 10 mcg/ml with one log intervals) were then recorded every 10 minutes. Preparations were washed four times after each response. All doses of compounds were administered in a 0.1 ml volume. Because it has been observed that the magnitude of the second response to carbachol (approximately 10% greater than the first) is close to the maximal response of the tissue, such value was taken as a measure of the sensitivity of a particular segment. Responses to each concentration of the test compound were expressed in terms of percentage of the second response to carbachol and the ED50 (dose producing a response 50% that of carbachol) was calculated graphically. Activity was scored according to the following scale: […]

Row | SMILES | Test B Activity Value (% decrease in acidity, inhibition of gastric secretion) [1] | Test C Activity Value (ED100 ml/min, increase in femoral blood flow) [2] | ED (50 mmHg) [3] | Test E Cascade Assay, Stomach, Activity Value (ED50) [4] | Test E Cascade Assay, Colon, Activity Value (ED50) [5] | Test E Cascade Assay, Rectum, Activity Value (ED50) [6] | Test E Cascade Assay, Aorta, Activity Value (ED50) [7] | EC50 [8]
1 | O=C(O)CCCCCC[C@H]1C(=O)CC[C@@H]1/C=C/[C@H](O)C1CCC2(CCCCC2)CC1 (relative stereo) [TR-4020, dl 7-{5-oxo-2R-[3R-hydroxy-3-(spiro[5.5]undecan-3-yl)-1E-propenyl]cyclopent-1R-yl}heptanoic acid] | 0 (<26) | 0 (>10.0) | > 0.01 mg/kg | 2 (101 - 1000) | 0 (>10000) | 0 (>10000) | 0 (>10000) | > 10 µg/mL
2 | O=C(O)CCCCCC[C@H]1C(=O)CC[C@@H]1/C=C/[C@@H](O)C1CCC2(CCCCC2)CC1 (relative stereo) [TR-4021, dl 7-{5-oxo-2R-[3S-hydroxy-3-(spiro[5.5]undecan-3-yl)-1E-propenyl]cyclopent-1R-yl} heptanoic acid] | 0 (<26) | 0 (>10.0) | > 0.01 mg/kg | 4 (<10) | 0 (>10000) | 0 (>10000) | 0 (>10000) | > 10 µg/mL
3 | O=C(O)CCCCCC[C@H]1C(=O)CC[C@@H]1/C=C/[C@@H](O)C1CC2(CCC2)C1 (relative stereo) [TR-4136, dl 7-{5-oxo-2R-[3S-hydroxy-3-(spiro[3.3]hept-2-yl)-1E-propenyl]cyclopent-1R-yl}heptanoic acid] | 1 (26-50, not significant) | 0 (>10.0) | > 0.01 mg/kg | 2 (101 - 1000) | 0 (>10000) | 1 (1001 - 10000) | 0 (>10000) | > 10 µg/mL
4 | O=C(O)CCCCCC[C@H]1C(=O)CC[C@@H]1/C=C/[C@H](O)C1CC2(CCC2)C1 (relative stereo) [TR-4137, dl 7-{5-oxo-2R-[3R-hydroxy-3-(spiro[3.3]hept-2-yl)-1E-propenyl]cyclopent-1R-yl}heptanoic acid] | 3 (51-75) | 3 (0.01 - 0.1) | 0.00011 to 0.001 mg/kg | 1 (1001 - 10000) | 0 (>10000) |  | 0 (>10000) | > 10 µg/mL
5 | O=C(O)CCC/C=C\C[C@H]1C(=O)CC[C@@H]1/C=C/[C@@H](O)C1CC2(CCC2)C1 (relative stereo) [TR-4146, dl 7-{5-oxo-2R-[3S-hydroxy-3-(spiro[3.3]hept-2-yl)-1E-propenyl]cyclopent-1R-yl}hept-5Z-enoic acid] | 0 (<26) | 0 (>10.0) | > 0.01 mg/kg | 1 (1001 - 10000) | 2 (101 - 1000) |  | 0 (>10000) | > 10 µg/mL
6 | O=C(O)CCC/C=C\C[C@H]1C(=O)CC[C@@H]1/C=C/[C@H](O)C1CC2(CCC2)C1 (relative stereo) [TR-4147, dl 7-{5-oxo-2R-[3R-hydroxy-3-(spiro[3.3]hept-2-yl)-1E-propenyl]cyclopent-1R-yl}hept-5Z-enoic acid] | 0 (<26) | 0 (>10.0) | 0.00011 to 0.001 mg/kg | 2 (101 - 1000) | 0 (>10000) | 2 (101 - 1000) | 1 (1001 - 10000) | > 10 µg/mL
7 | COC(=O)CCCCCC[C@@H]1[C@@H](/C=C/[C@@H](O)C2CC3(CCC3)C2)[C@H](O)C[C@H]1O [TR-4138, Methyl 7-{3R, 5R-dihydroxy-2R-[3S-hydroxy-3-(spirol[3.3]hept-2-yl)-1E-propenyl]cyclopent-1R-yl}heptanoate] |  |  | > 0.01 mg/kg | 0 (>10000) | 0 (>10000) | 0 (>10000) | 0 (>10000) | > 10 µg/mL
